Data from patent publication US6084072A, “Purified lectin and methods of use” (The Regents of the University of Michigan, priority 1993, dated 2000).
Entries after “also recorded” stand apart in the source; their conditions may differ.

Legend:
amaranthin = amaranthin (Amaranthus caudatus, UniProt Q71QF2); experiment: Hapten inhibition of amaranthin/asialo-ovine submaxillary mucin precipitation; format: binding; settings: for Relative Inhibition potency ACA: N-Acetylgalactosamine = 1
Experimental: Precipitation assays were conducted in 1.5 ml centrifuge tubes by the method of So and Goldstein. Indicated amounts of glycoprotein were added to 80 μg of amaranthin, and the total volume was adjusted to 250 μl with phosphate buffered saline. The tubes were incubated at 37° C. and then kept at 4° C. for 2 days. The precipitates were centrifuged, washed with cold Phosphate buffered saline, dissolved in 0.05 N NaOH and analyzed for protein by the method of Lowery et al. using bovine serum albumin as the standard. Hapten inhibition assays were carried out using 80 μg of amaranthin, 5 μg of asialo-ovine submaxillary mucins, and the indicated sugar concentrations. Inhibition was determined relative to the amount of precipitate formed in the control with no sugar added. All precipitation assays were conducted in duplicate to bring the tolerance within ±5% and the amount of precipitate formed average.

PNA = biological target: T1, PNA (Arachis hypogaea, UniProt P02872); experiment: Hapten inhibition of PNA/asialoglycophorin precipitation; format: binding; settings: for Relative Inhibition potency PNA: Galactose = 1, 40 μg PNA, 6 μg asialoglycophorin
T1 construct: purchased E.Y. Laboratories, San Mateo, Calif; (donated by Dr. A. Chu)
T1 sequence (P02872 24-273): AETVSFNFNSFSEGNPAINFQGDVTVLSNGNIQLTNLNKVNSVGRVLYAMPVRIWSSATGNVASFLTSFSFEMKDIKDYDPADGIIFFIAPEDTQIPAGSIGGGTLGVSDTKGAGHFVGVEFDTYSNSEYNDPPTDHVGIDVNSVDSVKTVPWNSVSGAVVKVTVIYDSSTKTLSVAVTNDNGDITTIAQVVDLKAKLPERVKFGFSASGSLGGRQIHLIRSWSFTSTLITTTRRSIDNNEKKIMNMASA
Experimental: Precipitation reactions with PNA were carried out similarly, except that 40 μg of PNA was used. Hapten inhibition studies with PNA used 40 μg of PNA, 6 μg of asialoglycophorin, and the indicated sugar concentrations.

amaranthin, sequence (Q71QF2 entry or part of it): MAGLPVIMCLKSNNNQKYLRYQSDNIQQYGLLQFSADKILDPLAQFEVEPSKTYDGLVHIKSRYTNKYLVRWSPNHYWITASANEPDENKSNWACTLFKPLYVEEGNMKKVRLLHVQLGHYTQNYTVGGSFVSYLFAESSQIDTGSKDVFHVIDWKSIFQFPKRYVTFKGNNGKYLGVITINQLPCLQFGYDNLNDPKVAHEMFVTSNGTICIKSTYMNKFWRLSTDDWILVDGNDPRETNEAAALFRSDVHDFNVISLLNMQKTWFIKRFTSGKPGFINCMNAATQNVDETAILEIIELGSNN

| SMILES | Relative Inhibition potency ACA (amaranthin) | IC50 (amaranthin) | other results |
| --- | --- | --- | --- |
| CO[C@@H]1O[C@H](CO)[C@H](O)[C@H](O)[C@H]1O [Methyl β-galactoside] | < 0.003 |  | Relative Inhibition potency PNA (PNA): 0.8 |
| OC[C@H]1OC(O)[C@H](O)[C@@H](O)[C@@H]1O (some centres unmarked) [Glucose] | < 0.002 |  |  |
| CO[C@H]1O[C@H](CO)[C@H](O)[C@H](O)[C@H]1OC(C)=O [Methyl (2-O-acetyl)-α-galactoside] | 0.4 | 2140 µM | times less potent than GalNAcα-O--CH3 (amaranthin; inhibitor of amaranthin): 8.6 |
| C=CCO[C@@H]1O[C@H](CO)[C@@H](O)[C@H](O[C@@H]2O[C@H](CO)[C@H](O)[C@H](O)[C@H]2O)[C@H]1NC(C)=O [Galβ1,3GlcNAcβ-O-CH2 --CH--CH2] | < 0.08 |  |  |
| OC[C@H]1O[C@@H](O[C@H]2[C@H](O)[C@@H](O)C(O)O[C@@H]2CO)[C@H](O)[C@@H](O)[C@H]1O (some centres unmarked) [Galβ1,4Glc] | < 0.01 |  |  |
| OC[C@H]1OC(O)[C@H](O)[C@@H](O)[C@H]1O (some centres unmarked) [Galactose] | < 0.002 |  | inhibition of amaranthin/AOSM precipitation, in words (amaranthin): very poor inhibitors; also recorded: not by galactose |
| CC(=O)N[C@H]1C(O)O[C@H](CO)[C@@H](O)[C@@H]1O[C@@H]1O[C@H](CO)[C@H](O)[C@H](O)[C@H]1O (some centres unmarked) [Galβ1,3GlcNAC] | < 0.08 |  | inhibition of amaranthin/AOSM precipitation, in words (amaranthin): very poor inhibitor |
| COC(=O)CCCCCCCCO[C@H]1O[C@H](CO)[C@H](O)[C@H](O[C@@H]2O[C@H](CO)[C@H](O)[C@H](O[C@]3(C(=O)O)C[C@H](O)[C@@H](NC(C)=O)[C@H]([C@H](O)[C@H](O)CO)O3)[C@H]2O)[C@H]1NC(C)=O [NeuAcα2,3Galβ1,3GalNAcα-O-(CH2)8 --CO2 CH3] | 439 | 1.8 µM | inhibition of amaranthin/AOSM precipitation, in words (amaranthin): does not decrease inhibitory potency |
| CC(=O)N[C@H]1[C@@H](Oc2ccc([N+](=O)[O-])cc2)O[C@H](CO)[C@H](O)[C@@H]1O [p-NitrophenylN-acetyl-α-galactosiminide] | 1.8 | 450 µM |  |
| CO[C@H]1O[C@H](CO)[C@H](O)[C@H](O[C@@H]2O[C@H](CO)[C@H](O)[C@H](O)[C@H]2O)[C@H]1NC(C)=O [Galβ1,3GalNAcα-O-CH3] |  | 3.1 µM | Relative Inhibition potency PNA (PNA): 47 |
| CO[C@@H]1C[C@@H](O)[C@@H](O)[C@@H](CO)O1 [Methyl (2-deoxy)-α-galactose] | < 0.08 |  |  |
| CC(=O)N[C@H]1[C@H](O[C@H]2[C@@H](O)[C@@H](CF)O[C@H](OCc3ccccc3)[C@@H]2NC(C)=O)O[C@H](CO)[C@@H](O)[C@@H]1O [GlcNAcβ1,3[6-F]GalNAcα-O-benzyl] | < 0.08 |  |  |
| CC(=O)N[C@H]1[C@@H](OC[C@H]2OC(O)[C@H](O)[C@@H](O)[C@H]2O)O[C@H](CO)[C@H](O)[C@@H]1O (some centres unmarked) [GalNAcα1,6Gal] | 3.8 | 210 µM |  |
| CO[C@@H]1O[C@H](CO)[C@H](O)[C@H](O[C@@H]2O[C@H](CO)[C@H](O)[C@H](O[C@@H]3O[C@H](CO)[C@H](O)[C@H](O)[C@H]3O)[C@H]2NC(C)=O)[C@H]1O [Galβ1,3GalNAcβ1,3Galβ-O--CH3] | < 0.08 |  | inhibition of amaranthin/AOSM precipitation, in words (amaranthin): poor inhibitor; Relative Inhibition potency PNA (PNA): 38 |
| CC(=O)N[C@H]1[C@@H](OCc2ccccc2)O[C@H](CO)[C@H](O)[C@@H]1O[C@@H]1O[C@H](C)[C@H](O)[C@H](O)[C@H]1O [D-Fubcβ1,3GalNAcα-O-benzyl] | 416 | 1.9 µM | inhibition of amaranthin/AOSM precipitation, in words (amaranthin): very good inhibitor; Relative Inhibition potency PNA (PNA): 11 |
| CC(=O)N[C@H]1[C@@H](O[C@H]2[C@@H](O)[C@@H](CO)OC(O)[C@@H]2O)O[C@H](CO)[C@H](O)[C@@H]1O (some centres unmarked) [GalNAcα1,3Gal] | 2.5 | 310 µM |  |
| CC(=O)N[C@H]1[C@H](Oc2ccc([N+](=O)[O-])cc2)O[C@H](CO)[C@H](O)[C@@H]1O [p-NitrophenylN-acetyl-β-Zgalactosaminide] | < 0.3 |  |  |
| CC(=O)N[C@H]1CO[C@H](CO)[C@H](O)[C@@H]1O[C@@H]1O[C@H](CO)[C@H](O)[C@H](O)[C@H]1O [Galβ1,3(2-acetamido-2-deoxy-1,5-anhydrogalactitol)] | 136 | 5.8 µM | times less potent than Galβ1,3GalNAc (amaranthin; inhibitor of amaranthin): 1.7; Relative Inhibition potency PNA (PNA): 14 |

| SMILES | Relative Inhibition potency ACA (amaranthin) | IC50 (amaranthin) | other results |
| --- | --- | --- | --- |
| CO[C@H]1O[C@H](CO)[C@H](O)[C@H](O)[C@H]1NC(=O)c1ccccc1 [Methyl (2-N-benzamido)-α-galactosaminide] | 0.9 | 850 µM |  |
| CC(=O)N[C@H]1[C@H](O[C@H]2[C@@H](O)[C@@H](CO)O[C@@H](O[C@H]3[C@@H](O)[C@@H](CO)O[C@H](OCc4ccccc4)[C@@H]3NC(C)=O)[C@@H]2O)O[C@H](CO)[C@@H](O)[C@@H]1O [GlcNAcβ1,3Galβ1,3GalNAcα-O-benzyl] | 32 | 25 µM | decrease of potency by a factor, against Galβ1,3GalNAcα-O-benzyl (amaranthin; C'-3 substitution with GlcNAc): 10; fold lower reactivity compared with NeuAcα2,3Galβ1,3GalNAcα-O (amaranthin; amaranthin): 10; Relative Inhibition potency PNA (PNA): < 10 |
| C=CCO[C@@H]1O[C@H](CO)[C@H](O)[C@H](O[C@@H]2O[C@H](CO)[C@H](O)[C@H](O)[C@H]2O)[C@H]1NC(C)=O [Galβ1,3GalNAcβ-O-CH2 -CH = CH2] | 23 | 34 µM |  |
| CO[C@H]1[C@@H](O)[C@@H](CO)O[C@@H](O[C@H]2[C@@H](O)[C@@H](CO)O[C@H](OCc3ccccc3)[C@@H]2NC(C)=O)[C@@H]1O [3-O-Methyl Galβ1,3GalNAcα-O-benzyl] | 395 | 2 µM | Relative Inhibition potency PNA (PNA): < 10 |
| N[C@H]1C(O)O[C@H](CO)[C@H](O)[C@@H]1O (some centres unmarked) [Galactosamine] | < 0.002 |  | inhibition of amaranthin/AOSM precipitation, in words (amaranthin): very poor inhibitors |
| CO[C@H]1O[C@H](CO)[C@H](O)[C@H](O)[C@H]1NC(=O)c1ccc([N+](=O)[O-])cc1 [Methyl (2-N-p-nitrobenzamindo)-α-galactosaminide] | 5.6 | 140 µM |  |
| CO[C@H]1O[C@H](CO)[C@H](O)[C@H](O[C@@H]2O[C@H](CO)[C@H](O)[C@H](O)[C@H]2O)[C@H]1O [Galβ1,3Galα-O-CH3] | < 0.8 |  | inhibition of amaranthin/AOSM precipitation, in words (amaranthin): very poor inhibitors; inhibition of PNA, in words (PNA): rather good inhibitors; Relative Inhibition potency PNA (PNA): 4.2 |
| CC(=O)N[C@H]1[C@H](OC[C@H]2OC(O)[C@H](O)[C@@H](O)[C@H]2O)O[C@H](CO)[C@H](O)[C@@H]1O (some centres unmarked) [GalNAcβ1,6Gal] | 0.8 | 1000 µM |  |
| CO[C@H]1O[C@H](CO)[C@H](O)[C@H](O[C@@H]2O[C@H](CO)[C@@H](O)[C@H](O)[C@H]2O)[C@H]1NC(C)=O [Gacβ1,3GalNAcα-O-CH3] | 22 | 36 µM | times less potent than Galβ1,3GalNAcα-O--CH3 (amaranthin; inhibitor of amaranthin): 10 |
| CC(=O)N[C@H]1[C@@H](Oc2ccccc2[N+](=O)[O-])O[C@H](CO)[C@H](O)[C@@H]1O[C@@H]1O[C@H](CO)[C@H](O)[C@H](O)[C@H]1O [Galβ1,3GalNAcα-O-o-nitrophenyl] | 376 | 2.1 µM |  |
| OC[C@H]1O[C@H](OC[C@H]2OC(O)[C@H](O)[C@@H](O)[C@@H]2O)[C@H](O)[C@@H](O)[C@H]1O (some centres unmarked) [Galα1,6Glc] | < 0.008 |  |  |
| CO[C@H]1O[C@H](CO)[C@H](O)[C@H](O)[C@H]1NC(C)=O [Methyl N-acetyl-α-galactosaminide] | 3.2 | 250 µM | inhibition of amaranthin/AOSM precipitation, in words (amaranthin): best monosaccharide inhibitor |
| COC(=O)[C@H](CO[C@H]1O[C@H](CO)[C@H](O)[C@H](O)[C@H]1NC(C)=O)NC(=O)OCc1ccccc1 [3-O-(2-N-acetyl-α-D-galactopyranosyl-N-(benzyloxcarbonyl)-L-serinemethyl ester] | 15 | 53 µM |  |
| CO[C@@H]1O[C@H](CO)[C@H](O)[C@H](O)[C@H]1NC(C)=O [Methyl N-acetyl-β-galactosaminide] | 0.07 | 11300 µM |  |
| C[C@H]1OC(O)[C@H](O)[C@@H](O)[C@H]1O (stereo partly drawn) [D-Fucose] | < 0.002 |  |  |
| CC(=O)N[C@H]1[C@@H](OCc2ccccc2)O[C@H](CF)[C@H](O)[C@@H]1O[C@@H]1O[C@H](CO)[C@H](O)[C@H](O)[C@H]1O [Galβ1,3[6-F]GalNAcα-O-benzyl] | 465 | 1.7 µM | inhibition of amaranthin/AOSM precipitation, in words (amaranthin): inhibition is equivalent to Galβ1,3GalNAca-O-benzyl |
| CO[C@H]1O[C@H](CO)[C@H](O)[C@H](O)[C@H]1OC(=O)c1ccc([N+](=O)[O-])cc1 [Methyl (2-O-p-nitrobenzoate)-α-galactoside] | < 0.1 |  |  |
